# Test results from patent publication US20200308540A1, “METHODS OF MAKING, EXPANDING, AND USING A HUMAN PROGENITOR T CELL” (REGENTS OF THE UNIVERSITY OF MINNESOTA, priority 2017, published 2020).
# How the values were obtained:
# patients = details: SR1-expanded cord blood; cited from earlier work
# [1] = tested on: CD34^+ hematopoietic stem/progenitor cells (HSPCs); experiment: SR1 expansion culture of umbilical cord blood CD34+ HSPC (15 days); format: cell-based, human
# Protocol: Frozen UCB units were thawed using standard methods (Rubinstein et al., Proc Natl Acad Sci USA. 1995; 92:10119-10122). The UCB unit was enriched for CD34^+-cells using the CliniMACS Cell Selection Device (Miltenyi Biotec, Gladbach, Germany) following manufacturer's instructions, and the resulting CD34-enriched cell population was placed in expansion media at a concentration of 5×10^3 cells per milliliter (cells/mL). The expansion culture media included SCF, FLT-3L, TPO, IL-6 (each at 50 ng/ml) and SR1 (750 nM). Cells were cultured in expansion culture media without the addition of antibiotics for 15 days; cytokines were replenished and cells were resuspended at 5×10^3 cells/mL at day 7.
# HSC expansion media cultures (Boitano et al. Science. 2010; 329(5997):1345-1348) lasted 15 days prior to freezing.
# It was previously reported that naïve-UCB can generate 4- to 5-fold Tprog expansion (Awong et al. Blood. 2009; 114(5):972-982). At least 2×10^5 CD34^+ HSPC are needed for HSCT; but a single UCB unit averages 2.5×10^3 CD34^+ HSPC (Delaney et al. Expert Rev Hematol. 2010; 3(3):273-283). This Example describes an investigation of whether adding SR1 (0.75 μM) to expand CD34^+ HSPC Wagner et al. Cell Stem Cell. 2016; 18(1):144-155) could improve in vitro pro-T generation. CD34^+ HSPC culture reproducibility (FIG. 11A) was characterized. […] 2012; 10(2):120-136).
# NSG mice = experiment: Engraftment of progenitor T cells in NSG mice (thymus, spleen); details: mouse, in vivo
# Protocol: ProT cells generated as described in Example 4 (after 21 days of co-culture) were injected into the liver of 2 day to 5 day old neonatal (NOD/SCID/γcnull (NSG)) mice (3 mice per group) at different cell concentrations/mouse (e.g., 2×10^5 cells, 5×10^5 cells, or 5×10^6 cells in 30 μL, volume). Optionally, 2×10^4 CD34-enriched HSCs, isolated from a UCB unit using the CliniMACS Cell Selection Device (Miltenyi Biotec, Gladbach, Germany) following manufacturer's instruction, were injected simultaneously.
# Twelve weeks later, mice were sacrificed, and engraftment of the in vitro-derived ProT cells into immunodeficient mice was assessed by flow cytometry analysis using phenotypic characterization of cells within the thymus and spleen of the recipient mouse. Useful markers for analysis include CD45, CD3/TCR, CD8, CD4, CD5, CD7, and CD1a (antibodies were acquired from eBioscience, San Diego, Calif.).
# As shown schematically in FIG. 8, SR1-expanded CD34^+ cells from a UCB unit were put into culture with OP9-DL1 cells for 14 days as described in Example 4. […] Four weeks later the mice were sacrificed and the cells' ability to engraft the thymus was assessed.
# Tprogenitors were generated from naïve UCB by co-culture with OP9-DL1 cells for 14 days as described in Example 4. […] Four weeks later the mice were sacrificed and the cells' ability to engraft the thymus was assessed. […]
# CD34+ stem cells = details: median; Wagner et al. 2016; cited from earlier work
# [2] = tested on: progenitor T cells (CD7^+ cells); experiment: OP9-DL1 co-culture of SR1-/UM171-expanded cells to generate progenitor T cells; format: cell-based, human; details: for CD34 expression during culture with OP9-DL1 cells: cells expanded with compound, then OP9-DL1 culture
# Protocol: 1. SR1-expanded cells were suspended in 3 mL of OP9 media then seeded into a plate/flask containing irradiated OP9-DL1 cells at 80% confluency. The human cytokines FLT-3L, IL-7, and SCF were added from a 1,000×stock solution (to 1×final concentration). 2. Additional human cytokines FLT-3L, IL-7, and SCF were added from a 1,000×stock solution (to 1×final concentration) every other day during cell culture. 3. At day 5 and every 3 days to 4 days thereafter, media containing cells was removed, and cells and media were passed through a 70 μm sterile nylon mesh or a 40 μm cell strainer into a 50 mL conical tube. Passage through the mesh or strainer removes OP9-DL1 cells but not cells derived from UCBs. PBS (5 mL) was added, and the coculture was disaggregated by vigorous pipetting (using a 5 mL pipette) and passed through the same cell strainer. […] 4. The cells that passed through the cell strainer were centrifuged at 515-585×g for 5 minutes, the supernatant was removed, and the cells were suspended in 1 mL of OP9 media. At this stage, the cells were counted using a hemocytometer (FIG. 2), assayed by flow cytometry (FIG. 3), or co-culture was continued. For continued co-culture, the cells were transferred into a new 6-well plate already containing OP9-DL1 cells at 80% confluency in 2 mL of OP9 media, and human cytokines FLT-3L, IL-7, and SCF were added from a 1,000×stock solution (to 1×final concentration). 5. Cells were harvested as described in steps 3 and 4 at day 14 or day 21 and phenotype was assessed (see FIG. 2, FIG. 3, and FIG. 7) or the cells were injected into a mouse, as described in Example 5. OP9-DL1 were gamma-irradiated (100 Gy) and seeded onto tissue culture flasks. SR1-UCB and naïve-UCB were seeded 2:1 with OP9-DL1 to generate proT-cells after 13-14 days (Schmitt et al. Immunity. 2002; 17(6):749-756). To examine whether SR1-expanded HSPC could generate proT-cells in vitro, SR1-HSPC were co-cultured with OP9-DL1 (FIG. 11A). […] SR1-HSPC and naïve-HSPC co-cultures had similar % CD34^−CD7^+ cells, % CD7^+CD5^+ cells and % CD7^+CD1a^+ cells (FIG. 11C). […] From SR1-HSPC, an approximately 4-fold expansion of pro-Tcells was observed, similar to naïve-HSPC co-cultures (FIG. 11D). Combining SR1-expansion of HSPCs and use of OP9-DL1 co-cultures, a single starting HSPC yielded approximately 2×10^3 cells, a 200-fold greater expansion of SR1-proT cells over naïve proT-cells (FIG. 11E).
SMILES,median time to neutrophil engraftment (patients) [days],median time to platelet engraftment (patients) [days],"fold enhancement of total nuclear cells ([1]; SR1 0.75 μM, by day 15)","fold expansion of CD34^+CD90^+ cells ([1]; SR1 0.75 μM, by day 15)","fold expansion of long-term reconstituting CD34^+CD38^− cells ([1]; SR1 0.75 μM, by day 15)",fold expansion of CD34^+ hematopoietic stem/progenitor cells (HSPCs) ([1]; SR1-expanded umbilical cord blood),"thymus engraftment of cells treated with the compound, after OP9-DL1 co-culture (NSG mice)",fold expansion of CD34+ stem cells (CD34+ stem cells) [fold],cells yielded from a single starting HSPC ([2]; SR1-expansion of HSPCs combined with OP9-DL1 co-culture),"fold increase in ProT cells ([2]; SR1 expansion of human UCB, then co-culture with Notch ligand cell without SR1) [fold]",CD34 expression during culture with OP9-DL1 cells [2],percentage of culture that is proT cell (CD7^+ cell) ([2]; flow cytometry after OP9-DL1 culture),"fold expansion of pro-T cells in OP9-DL1 co-culture ([2]; from SR1-HSPC, day 14)",fold greater expansion of SR1-proT cells over naïve proT-cells ([2]; normalized to initial CD34+ input cell number) [fold]
"CC(C)n1cnc2c(NCCc3ccc(O)cc3)nc(-c3csc4ccccc34)nc21 [SR1, StemRegenin-1]",15,49,252-746 fold,170-415 fold,157-558 fold,greater than 250 fold,able to engraft the thymus,330,approximately 2×10^3 cells,2000,lose CD34 expression,greater than 90%,approximately 4 fold,200
Cn1nnc(-c2ccc3c(c2)[nH]c2nc(Cc4ccccc4)nc(NC4CCC(N)CC4)c23)n1 (stereo not shown) [UM171],,,,,,,able to engraft the thymus,,,,lose CD34 expression,,,
